Experimental data as given in article PMC12486440, “Design, synthesis, and in silico studies of new benzofuran–pyrazole hybrids as multi-kinase inhibitors with potential antiproliferative activity” (RSC Advances, 2025).

Tests used:
Colon cancer subpanel = assay: NCI 60 subpanel summary; type: cell-based, human
CNS cancer subpanel = assay: NCI 60 subpanel summary; type: cell-based, human
Prostate cancer subpanel = assay: NCI 60 subpanel summary; type: cell-based, human
Pim-1 = Pim-1 (Homo sapiens, UniProt P11309); assay: PIM kinase inhibitory assay (ADP-Glo); type: biochemical
Chain of Pim-1 (P11309 whole entry): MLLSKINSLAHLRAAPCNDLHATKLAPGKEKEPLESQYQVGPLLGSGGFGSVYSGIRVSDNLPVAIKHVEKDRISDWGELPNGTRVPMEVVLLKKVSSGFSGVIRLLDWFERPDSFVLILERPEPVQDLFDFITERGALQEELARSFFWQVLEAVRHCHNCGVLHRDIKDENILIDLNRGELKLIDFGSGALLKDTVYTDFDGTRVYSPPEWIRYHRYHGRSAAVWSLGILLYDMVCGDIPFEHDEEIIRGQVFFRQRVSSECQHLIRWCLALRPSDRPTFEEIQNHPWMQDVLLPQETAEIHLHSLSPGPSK

EGFR (WT) = target: T1, EGFR (WT) (Homo sapiens, UniProt P00533); assay: EGFR WT kinase inhibitory assay (HTRF); type: biochemical
T1 construct: purchased Sigma
T1 sequence (P00533 25-1210): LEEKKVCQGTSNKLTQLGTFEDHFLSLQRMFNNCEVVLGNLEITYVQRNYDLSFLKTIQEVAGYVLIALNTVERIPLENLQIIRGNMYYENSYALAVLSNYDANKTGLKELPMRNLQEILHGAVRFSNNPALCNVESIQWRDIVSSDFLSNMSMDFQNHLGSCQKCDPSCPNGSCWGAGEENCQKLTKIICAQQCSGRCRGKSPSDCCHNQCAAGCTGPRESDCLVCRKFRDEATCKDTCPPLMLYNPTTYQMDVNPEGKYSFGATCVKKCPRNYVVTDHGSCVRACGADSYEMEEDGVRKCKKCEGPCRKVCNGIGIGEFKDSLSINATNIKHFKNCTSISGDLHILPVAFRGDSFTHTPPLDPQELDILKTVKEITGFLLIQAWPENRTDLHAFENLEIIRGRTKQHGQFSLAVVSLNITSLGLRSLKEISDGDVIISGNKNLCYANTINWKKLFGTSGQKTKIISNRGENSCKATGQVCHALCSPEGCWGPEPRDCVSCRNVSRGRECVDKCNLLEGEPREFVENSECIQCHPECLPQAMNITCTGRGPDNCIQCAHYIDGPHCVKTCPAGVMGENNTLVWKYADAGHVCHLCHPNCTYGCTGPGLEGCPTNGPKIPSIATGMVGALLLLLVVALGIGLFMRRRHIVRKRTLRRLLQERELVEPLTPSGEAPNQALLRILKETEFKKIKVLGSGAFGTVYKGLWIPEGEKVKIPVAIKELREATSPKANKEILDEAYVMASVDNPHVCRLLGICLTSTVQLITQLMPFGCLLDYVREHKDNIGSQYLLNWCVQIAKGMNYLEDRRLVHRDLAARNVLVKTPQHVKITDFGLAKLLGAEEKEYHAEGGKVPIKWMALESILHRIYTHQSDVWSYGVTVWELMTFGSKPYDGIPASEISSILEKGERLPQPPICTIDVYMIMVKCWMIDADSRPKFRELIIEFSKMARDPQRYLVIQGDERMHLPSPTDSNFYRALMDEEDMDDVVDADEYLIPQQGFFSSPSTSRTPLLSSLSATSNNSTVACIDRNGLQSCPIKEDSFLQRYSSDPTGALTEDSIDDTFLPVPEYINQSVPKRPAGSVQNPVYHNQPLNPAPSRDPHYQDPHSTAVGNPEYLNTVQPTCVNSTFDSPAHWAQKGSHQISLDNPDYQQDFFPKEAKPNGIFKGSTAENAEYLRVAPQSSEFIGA

HL-60(TB) = assay: cells; details: Homo sapiens
RPMI-8226 = details: Homo sapiens, RPMI-8226
NCI/ADR-RES = details: Homo sapiens, NCI/ADR-RES
MDA-MB-468 = details: single dose 10 μM; breast carcinoma
MDA-MB-231/ATCC = details: Homo sapiens
[1] = Homo sapiens, subpanel mean graph midpoint, read-out: MG-MID (GI50)
[2] = full panel MG-MID / subpanel MG-MID
[3] = single dose 10 μM, non-small lung carcinoma
[4] = single dose 10 μM, colon cancer
[5] = single dose 10 μM, ovarian carcinoma
[6] = single dose 10 μM, renal carcinoma
[7] = single dose 10 μM, prostate carcinoma
[8] = single dose 10 μM, breast carcinoma

In the case of `c1ccc(-n2cc(C3CC(c4nc5ccccc5[nH]4)=NN3)c(-c3cc4ccccc4o3)n2)cc1` (centres unmarked) [3d, 3-(Benzofuran-2-yl)-4-(3-(1H-benzo[d]imidazol-2-yl)-4,5-dihydro-1H-pyrazol-5-yl)-1-phenyl-1H-pyrazole], the GI50 (Colon cancer subpanel; [1]) is reported as 5.02 µM, the Selectivity index (Colon cancer subpanel; [2]) is reported as 0.83 and the GI50 (CNS cancer subpanel; [1]) is reported as 3.55 µM. It also gave a Selectivity index (CNS cancer subpanel; [2]) of 1.18, a GI50 (Prostate cancer subpanel; [1]) of 4.31 µM and a Selectivity index (Prostate cancer subpanel; [2]) of 0.97. The IC50 (Pim-1) was 2.37 µM, the “times less sensitive, Pim-1, than to staurosporine” value (Pim-1; ratio of IC50 values) was 4.9 and the IC50 (EGFR (WT)) was 0.398 µM. The “times more effective at suppressing EGFR (WT) than erlotinib” value (EGFR (WT); ratio of IC50 values) was 1.2, the GI50 (HL-60(TB)) was 2.56 µM and the GI50 (K-562; Homo sapiens, K562) was 3.37 µM. It also gave a GI% (K-562; single dose 10 μM, leukemia) of 92.52%, a GI50 (RPMI-8226) of 3.04 µM and a GI50 (A549/ATCC; Homo sapiens, A549) of 3.86 µM. The GI% (A549/ATCC; [3]) was 87.82%, the GI50 (NCI-H226; Homo sapiens, NCI-H226) was 6.62 µM and the GI% (NCI-H226; [3]) was 34.35%. For the same molecule, the GI50 (NCI-H522; Homo sapiens, NCI-H522) was 3.48 µM, the GI% (NCI-H522; [3]) was 96.77% and the GI50 (HCC-2998; Homo sapiens, HCC 2998) was 5.25 µM. It also gave a GI% (HCC-2998; [4]) of 70.76%, a GI50 (HT29; Homo sapiens, HT-29) of 6.46 µM and a GI% (HT29; [4]) of 64.97%. The GI50 (SW-620; Homo sapiens, SW-620) was 5.95 µM, the GI% (SW-620; [4]) was 76.92% and the GI50 (SF-539; Homo sapiens, SF-539) was 3.97 µM. The GI% (SF-539; single dose 10 μM, CNS cancer) was 85.47%, the GI50 (SNB-19; Homo sapiens, SNB-19) was 3.77 µM and the GI% (SNB-19; single dose 10 μM, CNS cancer) was 92.86%. It also gave a GI50 (U251; Homo sapiens, U-251) of 3.72 µM, a GI% (U251; single dose 10 μM, CNS cancer) of 85.69% and a GI50 (LOX IMVI; Homo sapiens, LOX IMVI) of 3.71 µM. It also gave a GI% (LOX IMVI; single dose 10 μM, melanoma) of 75.62%, a GI50 (MALME-3M; Homo sapiens, Malme-3M) of 6.19 µM and a GI% (MALME-3M; single dose 10 μM, melanoma) of 81.85%. It also gave a GI50 (M14; Homo sapiens, M14) of 3.22 µM, a GI% (M14; single dose 10 μM, melanoma) of 83.05% and a GI50 (SK-MEL-2; Homo sapiens, SK-MEL-2) of 2.53 µM. The GI% (SK-MEL-2; single dose 10 μM, melanoma) was 99.44%, the GI50 (UACC-257; Homo sapiens, UACC-257) was 6.24 µM and the GI% (UACC-257; single dose 10 μM, melanoma) was 79.15%. It also gave a GI50 (OVCAR-5; Homo sapiens, OVCAR-5) of 5.52 µM, a GI% (OVCAR-5; [5]) of 66.23% and a GI50 (OVCAR-8; Homo sapiens, OVCAR-8) of 5.88 µM. It also gave a GI% (OVCAR-8; [5]) of 86.94%, a GI50 (NCI/ADR-RES) of 3.16 µM and a GI50 (786–0; Homo sapiens, 786-0) of 4.31 µM. For the same molecule, the GI% (786–0; [6]) was 71.73%, the GI50 (A498; Homo sapiens, A498) was 12.7 µM and the GI% (A498; [6]) was 54.33%. It also gave a GI50 (CAKI-1; Homo sapiens, CAKI-1) of 2.57 µM, a GI% (CAKI-1; [6]) of 92.45% and a GI50 (TK-10; Homo sapiens, TK-10) of 4.97 µM. For the same molecule, the GI% (TK-10; [6]) was 75.14%, the GI50 (PC-3; Homo sapiens, PC-3) was 3.47 µM and the GI% (PC-3; [7]) was 91.14%. For the same molecule, the GI50 (DU-145; Homo sapiens, DU-145) was 5.15 µM, the GI% (DU-145; [7]) was 67.57% and the GI50 (MCF7; Homo sapiens, MCF7) was 2.75 µM. For the same molecule, the GI% (MCF7; [8]) was 85.98%, the GI50 (T-47D; Homo sapiens, T47D) was 3.12 µM and the GI% (T-47D; [8]) was 88.48%. The GI% (MDA-MB-468) was 70.95% and the GI50 (MDA-MB-231/ATCC) was 4.78 µM.
